Measured values reported in patent US20090068290A1, “BIFEPRUNOX DOSES FOR TREATING SCHIZOPHRENIA” (priority 2006, published 2009).

Legend:
[1] = Incidence of hyperglycemia and diabetes-related adverse events in placebo-controlled trials; assay type: in vivo, human
Description: Hyperglycemia, in some cases extreme and associated with ketoacidosis or hyperosmolar coma or death, has been reported in patients treated with atypical antipsychotics. The incidence of hyperglycemia and diabetes-related adverse events (such as hyperglycemia, elevated blood glucose, impaired glucose tolerance, diabetes mellitus, inadequately controlled diabetes) in patients treated with bifeprunox was 0.5% (5/1050) and in placebo-treated patients was 0.6% (3/469) in six-week placebo-controlled trials. […] Assessment of the relationship between atypical antipsychotic use and glucose abnormalities is complicated by the possibility of an increased background risk of diabetes mellitus in patients with schizophrenia and the increasing incidence of diabetes mellitus in the general population. Given these confounders, the relationship between atypical antipsychotic use and hyperglycemia-related adverse events is not completely understood. […] Because bifeprunox was not marketed at the time these studies were performed, it is not known if bifeprunox is associated with this increased risk. Precise risk estimates for hyperglycemia-related adverse events in patients treated with atypical antipsychotics are not available.

[2] = Pooled metabolic analysis, 6-month study: body weight; details: for Weight, Mean (SD) change from baseline: endpoint
Description: (§1) OBJECTIVE: To examine the metabolic effects of bifeprunox in patients with acute and stable schizophrenia.
(§2) METHODS: Metabolic data was compiled from one 6-month and four 6-week studies (i.e., a treatment period) of bifeprunox in patients with stable and acute schizophrenia, respectively. In the 6-month study, patients received bifeprunox (n=331) or placebo (PBO) (n=166). […] Metabolic evaluations included body weight, body mass index (BMI), plasma glucose and lipid profiles. Fasting glucose and lipid values were assessed in one 6-week study and in the 6-month study. Triglyceride:HDL ratio (TG:HDL) was calculated as a marker of insulin resistance. No statistical analyses were performed; only descriptive statistics are presented.

[3] = system: patients with chronic schizophrenia; assay: CGI-S score, Clinical Study Four; assay type: in vivo, human; details: FAS, ANCOVA; for CGI-S, Adjusted Mean Change from Baseline (LS mean): LOCF; for mean CGI-S scores, time points of statistically significant superiority to PBO: per-visit LOCF analysis
Experimental: (§3) METHODOLOGY: This study was a multinational, multicenter, randomized, double-blind, parallel-group, placebo-controlled, fixed-dose study. The study consisted of a 3- to 6-day antipsychotic-free run-in period, after which patients were randomised to 6 months of double-blind treatment with fixed doses of bifeprunox (20 mg/day (BX20) or 30 mg/day (BX30)) or placebo (PBO). Patients allocated to the BX groups were up-titrated from 0.25 mg/day over 7 days (BX20) or 8 days (BX30), and then continued on these doses for the remainder of the study. […] At predetermined time points, blood samples were obtained for drug concentration analysis of BX and its major metabolites (3′- and 4′-sulfate conjugates of BX), and pharmaco-economic assessments were performed.

[4] = Pooled metabolic analysis, 6-month study: lipid profile
Description: as §1, §2

[5] = system: patients with chronic schizophrenia; assay: Movement rating scales SAS, BAS, AIMS, Clinical Study Four; assay type: in vivo, human; details: for AIMS total score at Month 6: APTS; for proportion of patients normal with respect to SAS status: Month 6
Experimental: as §3
The SAS is used to measure Parkinsonian-type symptoms in patients exposed to antipsychotics. The scale consists of 10 items, each rated on a 5-point scale ranging from 0 (complete absence of the condition) to 4 (presence of the condition in extreme form). The SAS total score is defined as the sum of all item scores, and the range is 0 to 40. A SAS total score of up to 3 is considered normal.
The BAS is used to rate observable, restless movements of drug-induced akathisia as well as the subjective awareness of restlessness and any distress associated with the akathisia. The scale consists of 3 items that is rated from 0 (no evidence of akathisia) to 3 (severe akathisia). The BAS total score is defined as the sum of the these three BAS item scores and ranges from is 0 to 9. In addition, a global clinical assessment of akathisia is rated from 0 (no evidence of akathisia) to 5 (severe akathisia).
The AIMS, designed to record the occurrence of dyskinetic movements, consists of 12 items. Items 1 to 7 measure specific involuntary movements on a scale from 0 (none) to 4 (severe). Items 8 to 10 measure global assessment of abnormal movement on a scale from 0 (no awareness) to 4 (aware, severe distress). Items 11 and 12 are questions regarding the dental condition of the patient, with yes/no answers. The total score is calculated by summing AIMS items 1 through 10 and ranges from 0 to 40; the non-global total score is calculated by summing items 1 through 7.

[6] = baseline BMI 18.5-25 kg/m^2, BX total doses
[7] = baseline BMI <18.5 kg/m^2, BX total doses
[8] = baseline BMI >25-30 kg/m^2, BX total doses
[9] = baseline BMI >30 kg/m^2, BX total doses
[10] = baseline BMI All, BX total doses
[11] = fasting, endpoint, 6-month study, BX total

For `O=c1[nH]c2cccc(N3CCN(Cc4cccc(-c5ccccc5)c4)CC3)c2o1` [Bifeprunox, 7-[4-([1,1′-biphenyl]-3-ylmethyl)-1-piperazinyl]-2(3H)-benzoxazolone], the “hyperglycemia or diabetes-related adverse events” value ([1]; 26-week placebo-controlled trial) was “no patients reported”, the “incidence of hyperglycemia and diabetes-related adverse events” value ([1]; six-week placebo-controlled trials) was 0.5% and the “≧7% weight decrease, (%)” value [2, 6] was 8.7%. The “≧7% weight increase, (%)” value [2, 6] was 3.3%, the “≧7% weight decrease, (%)” value [2, 7] was 23.1% and the “≧7% weight decrease, (%)” value [2, 8] was 4.7%. The “≧7% weight increase, (%)” value [2, 8] was 2.4%, the “≧7% weight decrease, (%)” value [2, 9] was 12.8% and the “≧7% weight decrease, (%)” value [2, 10] was 8.8%. For the same compound, the “≧7% weight increase, (%)” value [2, 10] was 2.5%, the “Weight, Mean (SD) change from baseline” value [2, 6] was −0.9 (2.9) kg and the “Weight, Mean (SD) change from baseline” value [2, 7] was −0.8 (2.6) kg. For the same compound, the “Weight, Mean (SD) change from baseline” value [2, 8] was −0.9 (2.7) kg, the “Weight, Mean (SD) change from baseline” value [2, 9] was −3.0 (5.6) kg and the “Weight, Mean (SD) change from baseline” value [2, 10] was −1.1 (3.3) kg. For the same compound, the mean weight change ([2]; final evaluation (LOCF)) was -1.1 kg, the “mean change in weight” value ([2]; patients with nausea or vomiting) was -1.4 kg and the “mean change in weight” value ([2]; patients without nausea or vomiting) was -1.0 kg. For the same compound, the “CGI-S, Adjusted Mean Change from Baseline (LS mean)” value (“CGI-S, Adjusted Mean Change” below) ([3]; Month 6, listed as BX20) was −0.1, the “CGI-S, Adjusted Mean Change” value ([3]; Month 6, listed as BX30) was 0.0 and the “CGI-S, Adjusted Mean Change” value ([3]; Week 6, listed as BX20) was −0.2. For the same compound, the “CGI-S, Adjusted Mean Change” value ([3]; Week 6, listed as BX30) was −0.1, the “mean CGI-S scores, time points of statistically significant superiority to PBO” value ([3]; listed as BX20) was “Months 3, 4, 5, and 6” and the “mean CGI-S scores, time points of statistically significant superiority to PBO” value ([3]; listed as BX30) was “Months 5 and 6”. For the same compound, the “change in total cholesterol (TC)” value ([4]; 6-month study) was -0.31 mmol/L, the “decrease in TG:HDL” value ([4]; 6-month study) was 23% and the “decrease in total cholesterol (TC)” value ([4]; 6-month study) was 6%. For the same compound, the “total cholesterol and triglycerides (in words)” value ([4]; 6-month study) was “reduced to a greater extent with bifeprunox than with placebo”, the “Fasting HDL, Mean change (SD)” value [4, 11] was 2.9 (9.3) mg/dL and the “Fasting HDL, Percentage mean change” value [4, 11] was 6.2%. The “Total cholesterol, Mean change (SD)” value [4, 11] was −11.6 (29.7) mg/dL, the “Total cholesterol, Percentage mean change” value [4, 11] was −6.4% and the “Triglyceride:HDL ratio, Mean change (SD)” value [4, 11] was −0.4 (1.0). The “Triglyceride:HDL ratio, Percentage mean change” value [4, 11] was −23.0%, the “Triglycerides, Mean change (SD)” value [4, 11] was −28.0 (76.0) mg/dL and the “Triglycerides, Percentage mean change” value [4, 11] was −19.4%. The “Fasting LDL, Mean change (SD)” value ([4]; in vivo) was −9.7 (27.6) mg/dL, the “Fasting LDL, Percentage mean change” value ([4]; in vivo) was −8.6% and the “change in TG values” ([4]; over 6-months) was -0.32 mmol/L. For the same compound, the “decrease in TG values” ([4]; over 6-months) was 19%, the “AIMS score, mean (SD)” value ([5]; BX20, Baseline, LOCF) was 1.04 (2.76) and the “BAS score, mean (SD)” value ([5]; BX20, Baseline, LOCF) was 0.44 (1.10). For the same compound, the “SAS score, mean (SD)” value ([5]; BX20, Baseline, LOCF) was 2.27 (3.72), the “AIMS score, mean (SD)” value ([5]; BX20, Baseline, OC) was 1.04 (2.76) and the “BAS score, mean (SD)” value ([5]; BX20, Baseline, OC) was 0.46 (1.10). For the same compound, the “SAS score, mean (SD)” value ([5]; BX20, Baseline, OC) was 2.27 (3.72), the “AIMS score, mean (SD)” value ([5]; BX20, Month 6, LOCF) was 1.55 (3.92) and the “BAS score, mean (SD)” value ([5]; BX20, Month 6, LOCF) was 0.49 (1.25). For the same compound, the “SAS score, mean (SD)” value ([5]; BX20, Month 6, LOCF) was 1.22 (2.47), the “AIMS score, mean (SD)” value ([5]; BX20, Month 6, OC) was 1.08 (2.13) and the “BAS score, mean (SD)” value ([5]; BX20, Month 6, OC) was 0.17 (0.42). For the same compound, the “SAS score, mean (SD)” value ([5]; BX20, Month 6, OC) was 0.97 (2.20), the “AIMS score, mean (SD)” value ([5]; BX20, Week 6, LOCF) was 1.59 (3.96) and the “BAS score, mean (SD)” value ([5]; BX20, Week 6, LOCF) was 0.49 (1.21). The “SAS score, mean (SD)” value ([5]; BX20, Week 6, LOCF) was 1.43 (2.77), the “AIMS score, mean (SD)” value ([5]; BX20, Week 6, OC) was 1.16 (2.55) and the “BAS score, mean (SD)” value ([5]; BX20, Week 6, OC) was 0.36 (0.99). The “SAS score, mean (SD)” value ([5]; BX20, Week 6, OC) was 1.31 (2.69), the “AIMS total score at Month 6” value ([5]; BX20, OC) was 1.08 and the “proportion of patients normal with respect to SAS status” value ([5]; BX20) was 89%. The “AIMS score, mean (SD)” value ([5]; BX30, Baseline, LOCF) was 1.35 (2.79), the “BAS score, mean (SD)” value ([5]; BX30, Baseline, LOCF) was 0.45 (1.11) and the “SAS score, mean (SD)” value ([5]; BX30, Baseline, LOCF) was 2.33 (3.53). The “AIMS score, mean (SD)” value ([5]; BX30, Baseline, OC) was 1.35 (2.79), the “SAS score, mean (SD)” value ([5]; BX30, Baseline, OC) was 2.33 (3.53) and the “AIMS score, mean (SD)” value ([5]; BX30, Month 6, LOCF) was 2.77 (6.09). The “SAS score, mean (SD)” value ([5]; BX30, Month 6, LOCF) was 2.09 (3.64), the “AIMS score, mean (SD)” value ([5]; BX30, Month 6, OC) was 0.86 (3.18) and the “BAS score, mean (SD)” value ([5]; BX30, Month 6, OC) was 0.16 (0.65). The “SAS score, mean (SD)” value ([5]; BX30, Month 6, OC) was 1.16 (2.78), the “AIMS score, mean (SD)” value ([5]; BX30, Week 6, LOCF) was 2.83 (6.09) and the “BAS score, mean (SD)” value ([5]; BX30, Week 6, LOCF) was 0.66 (1.55). For the same compound, the “SAS score, mean (SD)” value ([5]; BX30, Week 6, LOCF) was 2.35 (3.87), the “AIMS score, mean (SD)” value ([5]; BX30, Week 6, OC) was 1.80 (4.25) and the “SAS score, mean (SD)” value ([5]; BX30, Week 6, OC) was 2.06 (3.41). The “AIMS total score at Month 6” value ([5]; BX30, OC) was 0.86 and the “proportion of patients normal with respect to SAS status” value ([5]; BX30) was 78%.
